From PMC11243625, “Synthesis, Docking, and Machine Learning Studies of Some Novel Quinolinesulfonamides–Triazole Hybrids with Anticancer Activity” (Molecules, 2024)

Experiments:
[1] = test system: Caco-2; experiment: WST-1 test, colon cancer cells; format: cell-based, human; conditions: Homo sapiens, Caco-2, 72 h
Protocol: Hybrids 4–14 were tested as anticancer agents against four human cancer cell lines: colon cancer (Caco-2), glioblastoma (SNB-19), lung cancer (A549), ovarian cancer (SKOV-3), and normal human dermal fibroblasts (NHDFs).
(§1) Cell cultures were performed in 96-well plates (Nunc Thermo Fisher Scientific, Waltham, MA, USA). Cells were seeded at 5 × 10^4/well and incubated for 24 h (at 37 °C, 5% CO2, and constant humidity). The medium was replaced with fresh with the addition of test compounds at a concentration of 0.1–100 µg/mL of DMSO and incubated again for another 72 h. After this time, the WST-1 test (Roche Molecular Biochemicals, Mannheim, Germany) was performed to assess the metabolic activity of the cells. Absorbance was measured at λ = 450 nm using a UVM340 microplate reader (Biogenet, Józefów, Poland). Results are expressed as the mean value of at least three independent experiments performed in triplicate.

[2] = test system: SKOV-3; experiment: WST-1 test, ovarian cancer cells; format: cell-based, human; conditions: Homo sapiens, SK-OV-3, 72 h
Protocol: (§2) Hybrids 4–14 were tested as anticancer agents against four human cancer cell lines: colon cancer (Caco-2), glioblastoma (SNB-19), lung cancer (A549), ovarian cancer (SKOV-3), and normal human dermal fibroblasts (NHDFs). Cisplatin was used as the reference substance. The results are presented as the compound concentration of the compound (μM) that inhibits the growth of 50% of cancer cells compared to control cells (IC50). A negative value (Neg) means that the compound concentration of the tested hybrids was greater than 500 µM. […] It is generated only by a weak van der Waals interaction with Arg84. […] There is also a visible difference in activity depending on the type of group present on the triazole ring (substituent C in Figure 2). The results obtained indicate that hybrids containing aromatic systems as a C substituent in their structure, especially another quinoline molecule (compounds 9 and 10), have high activity.
as §1

[3] = test system: NHDF; experiment: WST-1 test, normal human dermal fibroblasts; format: cell-based; conditions: 72 h, WST-1, normal cells; for IC50: Homo sapiens, NHDF
Protocol: as §2, §1

[4] = test system: SNB-19; experiment: WST-1 test, glioblastoma cells; format: cell-based, human; conditions: Homo sapiens, SNB-19, 72 h
Protocol: as §2, §1

[5] = test system: A549; experiment: WST-1 test, lung cancer cells; format: cell-based, human; conditions: for IC50: Homo sapiens, A549, 72 h, read-out: IC50 A-549
Protocol: as §2, §1

Compound | IC50 [1] [µM] | IC50 [2] [µM] | IC50 [4] [µM] | melting point [°C] | IC50 [5] [µM] | IC50 A-549 ([5]; 72 h) | IC50 [3] [µM] | IC50 NHDF [3]
CN(Cc1cn(Cc2ccc(F)cc2)nn1)S(=O)(=O)c1cccc2cccnc12 [Compound 6b, 8-N-Methyl-N-{[1-(4-fluorobenzyl)-1H-1,2,3-triazol-4-yl]methyl}quinolinesulfonamide] | 19.3 | > 500 | 156 | 85 to 86 | > 500 |  | > 500 | 
C=C(Cn1cc(CNS(=O)(=O)c2cccc3cccnc23)nn1)[C@@H]1CC[C@]2(COC(C)=O)CC[C@]3(C)[C@H](CC[C@@H]4[C@@]5(C)CC[C@H](OC(C)=O)C(C)(C)[C@@H]5CC[C@]43C)[C@@H]12 [Compound 14a, 8-N-({1-[3β, 28-Diacetoxylup-20(29)-en-30-yl]-1H-1,2,3-triazol-4-yl}methyl)-quinolinesulfonamide] | > 500 | > 500 | 101 | 148 to 149 | > 500 |  | > 500 | 
CCCCn1cc(CN(C)S(=O)(=O)c2cccc3cccnc23)nn1 [Compound 12b, 8-N-Methyl-N-{[1-(1-butyl)-1H-1,2,3-triazol-4-yl]methyl}quinolinesulfonamide] | 1.29 | 80.4 | 63.6 | 74 to 75 | 189 |  | 242 | 
CCOC(=O)CCn1cc(CN(C)S(=O)(=O)c2cccc3cccnc23)nn1 [Compound 13b, Ethyl 3-{[4-(N-methylsulfamoyl-8-quinolyl)methyl]-1H-1,2,3-triazol-1-yl}propanoate] | 85.2 | 88.2 | 138 |  | > 500 |  | > 500 | 

Second part, led by results:

IC50 [1] [µM] | IC50 [2] [µM] | IC50 [4] [µM] | melting point [°C] | IC50 [5] [µM] | IC50 A-549 ([5]; 72 h) | Compound | IC50 [3] [µM] | IC50 NHDF [3]
0.48 | 7.16 | 0.59 | 176 to 178 | 1.29 |  | Cc1cn(C2CC(n3cc(CN(C)S(=O)(=O)c4cccc5cccnc45)nn3)C(CO)O2)c(=O)[nH]c1=O [Compound 11b, 8-N-Methyl-N-({1-[(2R, 3S, 5S)-2-(hydroxymethyl)-5-(5-methyl-2,4-dioxo-3,4-dihydropyrimidin-1(2H)-yl)tertrahydrofuran-3-yl]-1H-1,2,3-triazol-4-yl}methyl)quinolinesulfonamide] | 98.3 | have activity against normal cells
14.3 | 115 | 72.4 | 106 to 107 | 3.69 |  | O=S(=O)(NCc1cn(CSc2ccccc2)nn1)c1cccc2cccnc12 [Compound 8a, 8-N-[(1-Methylthiophenyl-1H-1,2,3-triazol-4-yl)methyl]quinolinesulfonamide] | 40.6 | 
0.31 | 16.9 | 0.83 | 135 to 136 | 36.1 |  | O=[N+]([O-])c1ccc(Cn2cc(CNS(=O)(=O)c3cccc4cccnc34)nn2)cc1 [Compound 7a, 8-N-{[1-(4-Nitrobenzyl)-1H-1,2,3-triazol-4-yl]methyl}quinolinesulfonamide] | 169 | 
0.4 | 14.1 | 0.41 | 112 to 113 | 0.8 | nanomolar concentration range | CN(Cc1cn(Cc2ccc(C#N)cc2)nn1)S(=O)(=O)c1cccc2cccnc12 [Compound 5b, 8-N-Methyl-N-{[1-(4-cyanobenzyl)-1H-1,2,3-triazol-4-yl]methyl}quinolinesulfonamide] | 9.16 | have activity against normal cells
9.69 | 94.5 | 37.4 | 194 to 195 | 113 |  | O=S(=O)(NCc1cn(-c2ccnc3c(Br)cccc23)nn1)c1cccc2cccnc12 [Compound 10a, 8-N-{[1-(8-Bromoquinolin-4-yl)-1H-1,2,3-triazol-4-yl]methyl}quinolinesulfonamide] | > 500 | 
